As a reminder, the IC50 is the concentration at which inhibition is half-maximal.

Where “and” joins values, the source holds several entries; their conditions need not be identical. Equal values may be shown once. Calls of active or inactive are those of the source. How the calls were made is not given here. A value given as a limit tells only on which side of the number the result lay.

The assay has as its system RSV-infected cells, CPE inhibition (cell viability). Nature of the assay: RSV cytopathic effect inhibitors, dose response, cell-based, synthesized compounds, set 6 (AID 504526).

On to `Cc1ccccc1CNC(=O)C1CCN(S(=O)(=O)c2cccc3nonc23)CC1`, for which the IC50 is > 50 µM (inactive).

With `COc1ccccc1CNC(=O)C1CCN(S(=O)(=O)c2cccc3nonc23)CC1`, the concentration for half-maximal inhibition (IC50) was 3.6 µM and 4.7 µM.

`O=C(O)C1CC=CCC1C(=O)Nc1ccc(S(=O)(=O)N2CCCc3ccccc32)cc1` (centres undefined): the IC50 is 31.4 µM.

As to `COc1ccccc1CNC(=O)C1CCN(Cc2cccc3nonc23)CC1`, the IC50 is > 50 µM (inactive).

In the case of `COc1ccccc1CNC(=O)C1CCN(S(=O)(=O)c2ccccc2)CC1`, the IC50 was > 50 µM (inactive).

Take `COc1ccc(C)cc1NC(=O)[C@@H]1CCCN1S(=O)(=O)c1cccc2cccnc12`: the IC50 was > 50 µM (inactive).

As to `Cc1ccc(C)c(NC(=O)[C@@H]2CCCN2S(=O)(=O)c2cccc3cccnc23)c1`, the IC50 was 5.1 µM.

Take `COc1ccccc1CNC(=O)[C@@H]1CCCN1S(=O)(=O)c1cccc2cccnc12`: the IC50 is 18.8 µM.

On to `O=C(NCc1ccccc1Cl)C1CCN(S(=O)(=O)c2cccc3nonc23)CC1`, for which the IC50 was 6.9 µM.

Regarding `COc1cccc(CNC(=O)C2CCN(S(=O)(=O)c3cccc4nonc34)CC2)c1`, the IC50 was > 50 µM (inactive).

Turning to `COCCCNC(=O)c1ccc(Cn2c(=O)c3ccccc3n(Cc3ccccc3)c2=O)cc1`, the IC50 is > 50 µM (inactive).

Regarding `COc1ccc(C)c(NC(=O)[C@@H]2CCCN2S(=O)(=O)c2cccc3cccnc23)c1`, the IC50 is 3.51 µM.

Turning to `Cc1ccc(C(C)(C)C)cc1NC(=O)[C@@H]1CCCN1S(=O)(=O)c1cccc2cccnc12`, the IC50 is > 50 µM (inactive).

As for `COc1ccccc1NCC(=O)Nc1cc(S(=O)(=O)N2CCOCC2)ccc1N1CCOCC1`, the IC50 is > 50 µM (inactive).

Regarding `COCCNC(=O)c1ccc(Cn2c(=O)c3ccccc3n(Cc3ccc(C)cc3)c2=O)cc1`, the IC50 was 2.32 µM.

In the case of `COc1ccccc1CNC(=O)C1CCN(S(=O)(=O)c2cccc3cccnc23)CC1`, the IC50 is > 50 µM (inactive).

On to `COCCCNC(=O)c1ccc(Cn2c(=O)c3ccc(Cl)cc3n(Cc3ccc(C)cc3)c2=O)cc1`, for which the IC50 is > 50 µM (inactive).

Regarding `Cc1ccc(Cl)c(NC(=O)[C@@H]2CCCN2S(=O)(=O)c2cccc3cccnc23)c1`, the IC50 was > 50 µM (inactive).

For `COc1ccccc1CNC(=O)C1CCN(S(=O)(=O)c2cccc3scnc23)CC1`, the IC50 was > 50 µM (inactive).

With `Cc1ccc(C(F)(F)F)cc1NC(=O)[C@@H]1CCCN1S(=O)(=O)c1cccc2cccnc12`, the IC50 is > 50 µM (inactive).

For `COc1ccc(CNC(=O)C2CCN(S(=O)(=O)c3cccc4nonc34)CC2)cc1`, the IC50 is > 50 µM (inactive).

In the case of `Cc1ccc(C(C)C)cc1NC(=O)[C@@H]1CCCN1S(=O)(=O)c1cccc2cccnc12`, the IC50 was > 50 µM (inactive).

On to `Cc1cccc(C)c1NC(=O)[C@@H]1CCCN1S(=O)(=O)c1cccc2cccnc12`, for which the IC50 was 34.6 µM.

Consider `Cc1ccc(Cl)cc1NC(=O)[C@@H]1CCCN1S(=O)(=O)c1cccc2cccnc12`, for which the IC50 is 0.22 µM.

The values are drawn from PubChem BioAssay AID504526 (Southern Research Specialized Biocontainment Screening …, 2011).
